# Experimental data as given in ChEMBL document CHEMBL1909046, “DrugMatrix in vitro pharmacology data”.
# Target: T1, Glucocorticoid receptor (Homo sapiens, UniProt P04150); also: in other assays of this panel Not Active means under 50% inhibition at 10 µM
# T1 sequence (P04150 whole entry): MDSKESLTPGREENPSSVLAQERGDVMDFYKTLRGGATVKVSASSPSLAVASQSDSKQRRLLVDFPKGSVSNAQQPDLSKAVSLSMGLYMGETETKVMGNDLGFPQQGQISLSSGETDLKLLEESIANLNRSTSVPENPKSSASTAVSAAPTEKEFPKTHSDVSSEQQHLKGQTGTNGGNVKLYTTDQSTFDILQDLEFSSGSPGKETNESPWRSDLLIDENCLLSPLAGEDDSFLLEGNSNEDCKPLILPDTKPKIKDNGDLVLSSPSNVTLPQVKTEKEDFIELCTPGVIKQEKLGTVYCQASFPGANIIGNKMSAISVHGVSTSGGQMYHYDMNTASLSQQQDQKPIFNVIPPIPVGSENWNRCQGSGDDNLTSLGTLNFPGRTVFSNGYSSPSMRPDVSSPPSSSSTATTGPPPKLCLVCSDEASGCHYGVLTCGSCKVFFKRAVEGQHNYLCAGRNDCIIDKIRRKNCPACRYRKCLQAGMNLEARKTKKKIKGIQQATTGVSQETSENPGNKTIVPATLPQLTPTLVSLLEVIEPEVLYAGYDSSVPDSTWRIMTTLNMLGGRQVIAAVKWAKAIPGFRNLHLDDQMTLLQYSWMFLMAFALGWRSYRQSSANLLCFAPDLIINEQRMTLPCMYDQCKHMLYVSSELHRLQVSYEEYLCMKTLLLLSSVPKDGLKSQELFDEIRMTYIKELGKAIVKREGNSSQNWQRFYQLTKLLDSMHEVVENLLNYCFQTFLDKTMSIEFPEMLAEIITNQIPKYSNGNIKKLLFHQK
# Details: hela s3
row,SMILES,IC50
1,Cc1cnc(C(=O)NCCc2ccc(S(=O)(=O)NC(=O)NC3CCCCC3)cc2)cn1 [GLIPIZIDE],Not Active

# Target: Melanocortin receptor 3 (Homo sapiens, UniProt P41968); also: in other assays of this panel Not Active means under 50% inhibition at 10 µM
# Assay type: cell membranes, Membrane
# Details: hek293
# Chain of Melanocortin receptor 3 (P41968 whole entry): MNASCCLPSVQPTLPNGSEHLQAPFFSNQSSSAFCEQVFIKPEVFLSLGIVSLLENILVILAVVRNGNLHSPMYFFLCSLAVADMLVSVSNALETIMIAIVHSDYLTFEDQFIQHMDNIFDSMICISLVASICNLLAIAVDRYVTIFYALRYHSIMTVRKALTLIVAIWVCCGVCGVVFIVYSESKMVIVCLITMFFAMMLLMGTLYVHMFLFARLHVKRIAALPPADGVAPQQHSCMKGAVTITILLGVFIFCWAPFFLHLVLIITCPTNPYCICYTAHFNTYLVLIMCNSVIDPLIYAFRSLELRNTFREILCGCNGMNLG
row,SMILES,IC50
1,Cc1cnc(C(=O)NCCc2ccc(S(=O)(=O)NC(=O)NC3CCCCC3)cc2)cn1 [GLIPIZIDE],Not Active
2,CC(C(=O)O)c1ccc(CC2CCCC2=O)cc1 (stereo unspecified) [LOXOPROFEN],Not Active
3,CC(=O)O[C@]1(C(C)=O)CC[C@H]2[C@@H]3C=C(C)C4=CC(=O)CC[C@]4(C)[C@H]3CC[C@@]21C [MEGESTROL ACETATE],Not Active
4,CN(Cc1cnc2nc(N)nc(N)c2n1)c1ccc(C(=O)N[C@@H](CCC(=O)O)C(=O)O)cc1 [METHOTREXATE],Not Active
5,COC(=O)c1ccccc1O [METHYL SALICYLATE],Not Active
6,O=C(O)c1cccnc1 [NIACIN],Not Active
7,CC(C)(CO)C(O)C(=O)NCCCO (stereo unspecified) [PANTHENOL],Not Active
8,COc1ccc(Cc2nccc3cc(OC)c(OC)cc23)cc1OC [PAPAVERINE],Not Active

# Target: T2, Adenosine receptor A1 (Homo sapiens, UniProt P30542);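 also: radioligand binding assay at the adenosine A1 receptor, with DPCPX serving as the labelled ligand; in other assays of this panel Not Active means under 50% inhibition at 10 µM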
# T2 sequence (P30542 whole entry): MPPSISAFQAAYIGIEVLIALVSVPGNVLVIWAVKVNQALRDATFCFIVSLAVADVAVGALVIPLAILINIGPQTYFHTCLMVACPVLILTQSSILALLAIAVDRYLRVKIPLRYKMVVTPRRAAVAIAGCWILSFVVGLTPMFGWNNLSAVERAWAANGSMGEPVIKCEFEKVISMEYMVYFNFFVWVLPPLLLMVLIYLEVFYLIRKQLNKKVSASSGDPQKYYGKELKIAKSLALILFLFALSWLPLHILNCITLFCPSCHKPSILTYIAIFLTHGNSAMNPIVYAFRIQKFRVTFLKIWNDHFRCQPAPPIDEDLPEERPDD
# Assay type: cell membranes, CHO, Membrane
# Details: cho
row,SMILES,IC50
1,Cc1cnc(C(=O)NCCc2ccc(S(=O)(=O)NC(=O)NC3CCCCC3)cc2)cn1 [GLIPIZIDE],Not Active
2,CC(C(=O)O)c1ccc(CC2CCCC2=O)cc1 (stereo unspecified) [LOXOPROFEN],Not Active
3,CC(=O)O[C@]1(C(C)=O)CC[C@H]2[C@@H]3C=C(C)C4=CC(=O)CC[C@]4(C)[C@H]3CC[C@@]21C [MEGESTROL ACETATE],Not Active
4,CN(Cc1cnc2nc(N)nc(N)c2n1)c1ccc(C(=O)N[C@@H](CCC(=O)O)C(=O)O)cc1 [METHOTREXATE],Not Active
5,COC(=O)c1ccccc1O [METHYL SALICYLATE],Not Active
6,O=C(O)c1cccnc1 [NIACIN],Not Active
7,CC(C)(CO)C(O)C(=O)NCCCO (stereo unspecified) [PANTHENOL],Not Active
8,COc1ccc(Cc2nccc3cc(OC)c(OC)cc23)cc1OC [PAPAVERINE],Not Active

# Tested on: not listed separately
# Assay: DRUGMATRIX: beta-Lactamase enzyme inhibition (substrate: Nitrocefin)
# Design: species or system Bacillus cereus
# Details: Not Active = under 50% inhibition at 10 µM
SMILES,IC50,Ki
Cc1cnc(C(=O)NCCc2ccc(S(=O)(=O)NC(=O)NC3CCCCC3)cc2)cn1 [GLIPIZIDE],Not Active,Not Active
CC(C(=O)O)c1ccc(CC2CCCC2=O)cc1 (stereo unspecified) [LOXOPROFEN],Not Active,Not Active
CC(=O)O[C@]1(C(C)=O)CC[C@H]2[C@@H]3C=C(C)C4=CC(=O)CC[C@]4(C)[C@H]3CC[C@@]21C [MEGESTROL ACETATE],Not Active,Not Active
CN(Cc1cnc2nc(N)nc(N)c2n1)c1ccc(C(=O)N[C@@H](CCC(=O)O)C(=O)O)cc1 [METHOTREXATE],Not Active,Not Active
COC(=O)c1ccccc1O [METHYL SALICYLATE],Not Active,Not Active
O=C(O)c1cccnc1 [NIACIN],Not Active,Not Active
CC(C)(CO)C(O)C(=O)NCCCO (stereo unspecified) [PANTHENOL],Not Active,Not Active
COc1ccc(Cc2nccc3cc(OC)c(OC)cc23)cc1OC [PAPAVERINE],Not Active,Not Active

# Target: T3, Cholecystokinin receptor type A (Homo sapiens, UniProt P32238); also: in other assays of this panel Not Active means under 50% inhibition at 10 µM
# T3 sequence (P32238 whole entry): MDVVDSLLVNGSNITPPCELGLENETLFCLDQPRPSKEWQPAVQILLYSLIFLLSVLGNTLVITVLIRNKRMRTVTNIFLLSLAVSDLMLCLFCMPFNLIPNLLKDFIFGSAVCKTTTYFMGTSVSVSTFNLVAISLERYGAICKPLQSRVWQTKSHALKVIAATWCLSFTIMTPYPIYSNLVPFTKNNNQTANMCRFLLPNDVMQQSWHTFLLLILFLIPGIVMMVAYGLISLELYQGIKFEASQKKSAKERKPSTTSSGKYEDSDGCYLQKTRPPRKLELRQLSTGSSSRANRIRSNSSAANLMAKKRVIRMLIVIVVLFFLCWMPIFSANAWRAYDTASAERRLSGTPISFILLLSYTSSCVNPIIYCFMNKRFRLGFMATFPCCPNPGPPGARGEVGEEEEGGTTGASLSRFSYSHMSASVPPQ
# Assay type: cell membranes, Membrane
# Details: 1321-n1
row,SMILES,IC50
1,Cc1cnc(C(=O)NCCc2ccc(S(=O)(=O)NC(=O)NC3CCCCC3)cc2)cn1 [GLIPIZIDE],Not Active
2,CC(C(=O)O)c1ccc(CC2CCCC2=O)cc1 (stereo unspecified) [LOXOPROFEN],Not Active
3,CC(=O)O[C@]1(C(C)=O)CC[C@H]2[C@@H]3C=C(C)C4=CC(=O)CC[C@]4(C)[C@H]3CC[C@@]21C [MEGESTROL ACETATE],Not Active
4,CN(Cc1cnc2nc(N)nc(N)c2n1)c1ccc(C(=O)N[C@@H](CCC(=O)O)C(=O)O)cc1 [METHOTREXATE],Not Active
5,COC(=O)c1ccccc1O [METHYL SALICYLATE],Not Active
6,O=C(O)c1cccnc1 [NIACIN],Not Active
7,CC(C)(CO)C(O)C(=O)NCCCO (stereo unspecified) [PANTHENOL],Not Active
8,COc1ccc(Cc2nccc3cc(OC)c(OC)cc23)cc1OC [PAPAVERINE],Not Active

# Target: T4, Caspase-1 (Homo sapiens, UniProt P29466)
# T4 sequence (P29466 whole entry): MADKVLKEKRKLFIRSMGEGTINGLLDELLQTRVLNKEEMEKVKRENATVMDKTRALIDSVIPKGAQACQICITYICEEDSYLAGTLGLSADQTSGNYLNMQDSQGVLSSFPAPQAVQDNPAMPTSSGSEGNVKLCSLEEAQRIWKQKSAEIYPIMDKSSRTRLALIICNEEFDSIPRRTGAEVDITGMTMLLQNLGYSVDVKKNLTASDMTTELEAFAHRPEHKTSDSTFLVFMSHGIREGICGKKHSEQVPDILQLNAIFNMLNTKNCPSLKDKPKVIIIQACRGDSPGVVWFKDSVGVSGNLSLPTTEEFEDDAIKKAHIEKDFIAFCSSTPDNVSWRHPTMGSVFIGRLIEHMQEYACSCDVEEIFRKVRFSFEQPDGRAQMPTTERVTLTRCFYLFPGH
# Design: species or system Escherichia coli
# Details: not given
row,SMILES,IC50
1,CC(C(=O)O)c1ccc(CC2CCCC2=O)cc1 (stereo unspecified) [LOXOPROFEN],Not Active
2,CC(=O)O[C@]1(C(C)=O)CC[C@H]2[C@@H]3C=C(C)C4=CC(=O)CC[C@]4(C)[C@H]3CC[C@@]21C [MEGESTROL ACETATE],Not Active
3,CN(Cc1cnc2nc(N)nc(N)c2n1)c1ccc(C(=O)N[C@@H](CCC(=O)O)C(=O)O)cc1 [METHOTREXATE],Not Active
4,COC(=O)c1ccccc1O [METHYL SALICYLATE],Not Active
5,O=C(O)c1cccnc1 [NIACIN],Not Active
6,CC(C)(CO)C(O)C(=O)NCCCO (stereo unspecified) [PANTHENOL],Not Active
7,COc1ccc(Cc2nccc3cc(OC)c(OC)cc23)cc1OC [PAPAVERINE],Not Active

# Tested on: not listed separately
# Assay: DRUGMATRIX: Phosphodiesterase PDE4 enzyme inhibition (substrate: [3H]cAMP + cAMP)
# Details: u-937; Not Active = under 50% inhibition at 10 µM
SMILES,IC50,Ki
Cc1cnc(C(=O)NCCc2ccc(S(=O)(=O)NC(=O)NC3CCCCC3)cc2)cn1 [GLIPIZIDE],Not Active,Not Active
CC(C(=O)O)c1ccc(CC2CCCC2=O)cc1 (stereo unspecified) [LOXOPROFEN],Not Active,Not Active
CC(=O)O[C@]1(C(C)=O)CC[C@H]2[C@@H]3C=C(C)C4=CC(=O)CC[C@]4(C)[C@H]3CC[C@@]21C [MEGESTROL ACETATE],Not Active,Not Active
CN(Cc1cnc2nc(N)nc(N)c2n1)c1ccc(C(=O)N[C@@H](CCC(=O)O)C(=O)O)cc1 [METHOTREXATE],Not Active,Not Active
COC(=O)c1ccccc1O [METHYL SALICYLATE],Not Active,Not Active
O=C(O)c1cccnc1 [NIACIN],Not Active,Not Active
CC(C)(CO)C(O)C(=O)NCCCO (stereo unspecified) [PANTHENOL],Not Active,Not Active

# Same assay, conditions: u-937; Not Active = under 50% inhibition at 10 µM; read-out: IC50
row,SMILES,IC50 [µM]
1,COc1ccc(Cc2nccc3cc(OC)c(OC)cc23)cc1OC [PAPAVERINE],0.817

# Target: Vasopressin V1a receptor (Homo sapiens, UniProt P37288); also: in other assays of this panel Not Active means under 50% inhibition at 10 µM
# Assay type: cell membranes, Membrane
# Details: hek293
# Chain of Vasopressin V1a receptor (P37288 whole entry): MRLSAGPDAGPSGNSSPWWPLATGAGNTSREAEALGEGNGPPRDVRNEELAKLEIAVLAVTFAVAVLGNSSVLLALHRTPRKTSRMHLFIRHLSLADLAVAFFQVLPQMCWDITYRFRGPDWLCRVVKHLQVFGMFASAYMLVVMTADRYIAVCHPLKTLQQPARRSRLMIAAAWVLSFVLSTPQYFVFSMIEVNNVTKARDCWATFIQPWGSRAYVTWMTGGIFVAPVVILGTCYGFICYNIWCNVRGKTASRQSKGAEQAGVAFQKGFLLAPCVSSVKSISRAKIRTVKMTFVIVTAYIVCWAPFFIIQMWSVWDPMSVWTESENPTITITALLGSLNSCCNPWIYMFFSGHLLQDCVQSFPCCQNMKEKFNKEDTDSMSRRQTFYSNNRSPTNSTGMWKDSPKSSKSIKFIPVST
row,SMILES,IC50
1,Cc1cnc(C(=O)NCCc2ccc(S(=O)(=O)NC(=O)NC3CCCCC3)cc2)cn1 [GLIPIZIDE],Not Active
2,CC(C(=O)O)c1ccc(CC2CCCC2=O)cc1 (stereo unspecified) [LOXOPROFEN],Not Active
3,CC(=O)O[C@]1(C(C)=O)CC[C@H]2[C@@H]3C=C(C)C4=CC(=O)CC[C@]4(C)[C@H]3CC[C@@]21C [MEGESTROL ACETATE],Not Active
4,CN(Cc1cnc2nc(N)nc(N)c2n1)c1ccc(C(=O)N[C@@H](CCC(=O)O)C(=O)O)cc1 [METHOTREXATE],Not Active
5,COC(=O)c1ccccc1O [METHYL SALICYLATE],Not Active
6,O=C(O)c1cccnc1 [NIACIN],Not Active
7,CC(C)(CO)C(O)C(=O)NCCCO (stereo unspecified) [PANTHENOL],Not Active
8,COc1ccc(Cc2nccc3cc(OC)c(OC)cc23)cc1OC [PAPAVERINE],Not Active
